From patent US20220000941A1, “MINERAL ELEMENTS COMPRISING HAFNIA ALVEI COMPOSITIONS” (TARGEDYS, priority 2019, published 2022)

Assays:
[1] = tested on: Hafnia alvei 4597; test: Turbidity of Hafnia alvei culture media by optical densitometry (OD at 640 nm); assay type: cell-based; settings: mineral source in LB medium, monitored during 48 hours
Description: The concentration of the minerals were based on their estimated concentration in […] (typical glass of water). However, in view of observing the Hafnia alvei strain development, the zinc and chrome sources were solubilized in a Luria Browth medium (LB). The composition of LB is as follows: Tryptone 10 g/L, yeast extract 5 g/L (Biokar Diagnostic®) and NaCl 0.5 g/L (Fluka®).
Hafnia alvei 4597 was incubated with Test medial-6 of example 1 and the turbidity of the culture media was monitored during 48 hours by means of optical densitometry (OD at 640 nm).
(§1) The development of Hafnia alvei in this new medium was monitored by optical densitometry and flow cytometry. LB medium with no added zinc or chrome was used as a control.

[2] = tested on: Hafnia alvei 4597; test: Flow cytometry of cell integrity (propidium iodide and Syto 24), intact cells; assay type: cell-based; settings: zinc comprising media, flow cytometry at 24 h
From the text: Samples of the culture media 1-6 were further assessed for the cell integrity by means of flow cytometry using as markers propidium iodide and Syto® 24. The flow cytometry measured the number of intact cells opposed to the population of cells whose cellular membrane integrity had been compromised.
as §1

O=C([O-])c1ccccn1.O=C([O-])c1ccccn1.O=C([O-])c1ccccn1.[Cr+3] [Chromium picolinate, chromium (3+); pyridine-2-carboxylate]
turbidity of the culture medium (OD at 640 nm) compared to control (LB) medium [1]: same turbidity as the control

NCC(=O)[O-].NCC(=O)[O-].[Zn+2] [Zinc bisglycinate, zinc; 2-aminoacetate]
development inhibition compared to the control medium [2]: no significant development inhibition
